Test results reported in patent US20200140489A1 (priority 2013, published 2020).
Like-named read-outs stand apart in the source and are kept apart here. Positions of bridges follow the written chain, without caps; N, C: chain ends. Non-standard residues stand in square brackets, D forms with d. Residues, ends and D or L forms follow the SMILES beside them. *: point of attachment. X1 = CC[C@@H](C)C1NC(=O)CN(CC(=O)*)C1=O; NMeI = CC[C@H](C)[C@H](NC)C(=O)O; NMeD = CN[C@@H](CC(=O)O)C(=O)O; NMeL = CN[C@@H](CC(C)C)C(=O)O; Nleu = CC(C)CNCC(=O)O; Aoc = NCCCCCCCC(=O)O; GABA = NCCCC(=O)O

Assays:
[1] = target: AgrC-III (Staphylococcus aureus, UniProt O33590); format: cell-based, S. aureus; settings: for AgrC-III activity: gfp/fluorescence assay; for IC50: read-out: AgrC-III IC50, fluorescence reporter strain; for AgrC-III % Activation: fluorescence of treated vs non-treated wild-type bacteria, lower % activation = more potent inhibition
Chain of AgrC-III (O33590 1-425): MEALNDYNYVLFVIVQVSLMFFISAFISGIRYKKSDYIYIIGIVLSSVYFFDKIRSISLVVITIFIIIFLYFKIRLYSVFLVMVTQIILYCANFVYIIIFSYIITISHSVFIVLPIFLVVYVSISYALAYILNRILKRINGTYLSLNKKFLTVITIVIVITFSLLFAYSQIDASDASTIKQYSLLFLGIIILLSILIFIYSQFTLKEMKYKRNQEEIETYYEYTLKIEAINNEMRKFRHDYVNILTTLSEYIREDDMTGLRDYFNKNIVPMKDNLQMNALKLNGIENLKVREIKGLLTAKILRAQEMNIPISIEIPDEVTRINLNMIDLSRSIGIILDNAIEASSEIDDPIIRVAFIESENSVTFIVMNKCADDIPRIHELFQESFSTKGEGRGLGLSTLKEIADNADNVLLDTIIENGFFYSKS

[2] = target: T1, AgrC-II (Staphylococcus aureus, UniProt O33587); format: cell-based, S. aureus; settings: for IC50: read-out: AgrC-II IC50, fluorescence reporter strain; for AgrC-II % Activation: fluorescence of treated vs non-treated wild-type bacteria, lower % activation = more potent inhibition
T1 sequence (O33587 1-437): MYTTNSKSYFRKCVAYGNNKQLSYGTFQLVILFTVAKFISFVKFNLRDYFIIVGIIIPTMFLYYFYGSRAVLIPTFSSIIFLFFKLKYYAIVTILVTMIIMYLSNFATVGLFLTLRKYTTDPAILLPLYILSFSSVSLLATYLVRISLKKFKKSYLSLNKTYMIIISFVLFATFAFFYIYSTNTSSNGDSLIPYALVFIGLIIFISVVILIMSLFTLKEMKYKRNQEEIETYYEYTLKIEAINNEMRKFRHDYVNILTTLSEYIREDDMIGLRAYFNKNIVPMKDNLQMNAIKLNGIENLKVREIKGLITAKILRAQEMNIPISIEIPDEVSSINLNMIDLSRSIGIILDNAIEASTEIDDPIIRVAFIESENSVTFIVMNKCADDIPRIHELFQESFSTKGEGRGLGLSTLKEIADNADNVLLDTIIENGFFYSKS

[3] = target: T2, AgrC-I (Staphylococcus aureus, UniProt O07911); format: cell-based, S. aureus; settings: for IC50: read-out: AgrC-I IC50, fluorescence reporter strain; for AgrC-I % Activation: fluorescence of treated vs non-treated wild-type bacteria, lower % activation = more potent inhibition
T2 sequence (O07911 1-430): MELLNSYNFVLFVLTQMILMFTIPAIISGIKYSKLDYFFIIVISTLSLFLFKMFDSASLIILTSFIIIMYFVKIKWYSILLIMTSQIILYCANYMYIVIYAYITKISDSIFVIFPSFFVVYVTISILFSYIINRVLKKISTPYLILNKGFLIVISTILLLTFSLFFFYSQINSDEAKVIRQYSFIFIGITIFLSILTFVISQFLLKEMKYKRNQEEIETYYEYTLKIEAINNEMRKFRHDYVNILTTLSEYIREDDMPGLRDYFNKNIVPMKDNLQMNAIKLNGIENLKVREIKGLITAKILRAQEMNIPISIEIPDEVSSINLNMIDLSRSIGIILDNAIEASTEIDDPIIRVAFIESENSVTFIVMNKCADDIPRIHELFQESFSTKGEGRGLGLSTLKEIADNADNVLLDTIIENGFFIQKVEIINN

[4] = target: T3, AgrC-IV (Staphylococcus aureus, UniProt Q309Z2); format: cell-based, S. aureus; settings: for AgrC-IV activity: gfp/fluorescence assay; for IC50: read-out: AgrC-IV IC50; for AgrC-IV % Activation: fluorescence of treated vs non-treated wild-type bacteria, lower % activation = more potent inhibition
T3 sequence (Q309Z2 1-430): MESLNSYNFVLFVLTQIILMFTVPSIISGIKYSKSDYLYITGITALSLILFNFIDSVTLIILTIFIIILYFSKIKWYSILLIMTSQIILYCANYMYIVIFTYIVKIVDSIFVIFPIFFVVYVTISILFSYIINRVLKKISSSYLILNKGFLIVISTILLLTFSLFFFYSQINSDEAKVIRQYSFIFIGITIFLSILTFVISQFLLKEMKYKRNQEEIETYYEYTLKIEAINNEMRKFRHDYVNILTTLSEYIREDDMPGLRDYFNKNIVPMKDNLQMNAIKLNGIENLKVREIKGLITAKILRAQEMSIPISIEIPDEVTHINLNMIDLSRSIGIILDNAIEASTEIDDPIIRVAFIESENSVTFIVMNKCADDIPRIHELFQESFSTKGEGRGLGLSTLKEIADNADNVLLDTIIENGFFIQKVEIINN

[5] = target: T1, AgrC-II; assay: Hemolysis assay, wild-type group-II strain RN6923, rabbit red blood cells; settings: read-out: AgrC-II IC50; hemolysis assay; 200 fM − 10 μM
[6] = target: T3, AgrC-IV; assay: Hemolysis assay, wild-type group-IV strain RN4850, rabbit red blood cells; settings: read-out: AgrC-IV IC50; hemolysis assay; 200 fM − 10 μM
[7] = target: T2, AgrC-I; assay: Hemolysis assay, wild-type group-I strain RN6390B, rabbit red blood cells; settings: read-out: AgrC-I IC50; hemolysis assay; 200 fM − 10 μM
[8] = second-generation analogues, 200 fM − 10 μM
[9] = second-generation analogues, fluorescence reporter strain, 200 fM − 10 μM
[10] = AIPs tested over 200 fM − 10 μM or (b1) 2.5 pM − 10 μM, triplicate
[11] = fluorescence reporter strain, AIPs tested over 200 fM − 10 μM or (b1) 2.5 pM − 10 μM, triplicate

SMILES | AgrC-III activity [1] | IC50 [1, 8] | IC50 [2, 8] | IC50 [3, 8] | IC50 [4, 9] | IC50 [1, 10] | IC50 [2, 10] | IC50 [3, 10] | IC50 [4, 11] | further results
CC[C@H](C)[C@H](NC(=O)[C@H](C)N)C(=O)N[C@@H](CC(N)=O)C(=O)N[C@H]1CSC(=O)[C@H](CC(C)C)NC(=O)[C@H](CC(C)C)NC(=O)[C@H](Cc2ccccc2)NC(=O)[C@H](CC(=O)O)NC1=O [A-AIP-III, A-I-N-(C-D-F-L-L)] (H-AINCDFLL; thioester 4-C) | partial agonist | 27.5 nM | 6.4 nM | 26.1 nM | 28.5 nM |  |  |  |  | AgrC-IV activity [4]: partial agonism
CC[C@H](C)[C@H](N)C(=O)N[C@@H](CC(N)=O)C(=O)N[C@H]1CSC(=O)[C@H](CC(C)C)NC(=O)[C@H](CC(C)C)NC(=O)[C@H](C)NC(=O)[C@H](CC(=O)O)NC1=O [AIP-III F5A, I-N-(C-D-A-L-L)] (H-INCDALL; thioester 3-C) |  |  |  |  |  | > 200 nM | > 200 nM | > 200 nM | 118 nM | IC50 [5]: 44.7 nM
CC(C)C[C@@H]1NC(=O)[C@H](Cc2ccccc2)NC(=O)[C@H](CC(=O)O)NC(=O)[C@@H](NC(=O)[C@H](CC(N)=O)NC(=O)[C@H](C)N)CSC(=O)[C@H](CC(C)C)NC1=O [AIP-III I1A, A-N-(C-D-F-L-L)] (H-ANCDFLL; thioester 3-C) |  |  |  |  |  | 194 nM | 4.26 nM | 17.9 nM | 7.85 nM | IC50 [5]: 1.29 nM; IC50 [6]: 12.5 nM; IC50 [7]: 4.61 nM
CC(C)C[C@@H]1NC(=O)[C@H](Cc2ccccc2)NC(=O)[C@H](CC(=O)O)NC(=O)[C@@H](NC(=O)[C@H](C)NC(=O)[C@H](C)N)CSC(=O)[C@H](CC(C)C)NC1=O [AIP-III I1A/N2A, A-A-(C-D-F-L-L)] (H-AACDFLL; thioester 3-C) |  | 2.6 nM | 4.38 nM | 7.4 nM | 5.41 nM |  |  |  |  | 
CC[C@H](C)[C@H](N)C(=O)N[C@@H](CC(N)=O)C(=O)N[C@H]1CSC(=O)[C@H](CC(C)C)NC(=O)[C@H](C)NC(=O)[C@H](Cc2ccccc2)NC(=O)[C@H](CC(=O)O)NC1=O [AIP-III L6A, I-N-(C-D-F-A-L)] (H-INCDFAL; thioester 3-C) |  |  |  |  |  | > 200 nM | > 200 nM | > 200 nM | > 200 nM | 
CC[C@H](C)[C@H](N)C(=O)N[C@@H](CC(N)=O)C(=O)N[C@H]1CSC(=O)[C@H](C)NC(=O)[C@H](CC(C)C)NC(=O)[C@H](Cc2ccccc2)NC(=O)[C@H](CC(=O)O)NC1=O [AIP-III L7A, I-N-(C-D-F-L-A)] (H-INCDFLA; thioester 3-C) | largely inactive |  |  |  |  | > 200 nM | > 200 nM | > 200 nM | > 200 nM | 
CC[C@H](C)[C@H](N)C(=O)N[C@@H](C)C(=O)N[C@H]1CSC(=O)[C@H](CC(C)C)NC(=O)[C@H](CC(C)C)NC(=O)[C@H](Cc2ccccc2)NC(=O)[C@H](CC(=O)O)NC1=O [AIP-III N2A, I-A-(C-D-F-L-L)] (H-IACDFLL; thioester 3-C) | weak agonist |  |  |  |  |  | 0.732 nM | 3.6 nM | 3.53 nM | IC50 [5]: 0.137 nM; IC50 [6]: 2.64 nM; IC50 [7]: 1.02 nM
CC[C@H](C)[C@H](N)C(=O)N[C@@H](CC(N)=O)C(=O)N[C@H]1CSC(=O)[C@H](CC(C)C)NC(=O)[C@H](CC(C)C)NC(=O)[C@H](Cc2ccccc2)NC(=O)[C@H](CC(=O)O)N(C)C1=O [AIP-III N-Me-D4, I-N-(C-NMeD-F-L-L)] (H-INC[NMeD]FLL; thioester 3-C) |  |  |  |  |  | 90.2 nM | 7.98 nM | 172 nM | 36.9 nM | 
CC[C@H](C)[C@H](NC)C(=O)N[C@@H](CC(N)=O)C(=O)N[C@H]1CSC(=O)[C@H](CC(C)C)NC(=O)[C@H](CC(C)C)NC(=O)[C@H](Cc2ccccc2)NC(=O)[C@H](CC(=O)O)NC1=O [AIP-III N-Me-I1, NMeI-N-(C-D-F-L-L)] (H-[NMeI]NCDFLL; thioester 3-C) |  |  |  |  |  | > 1000 nM | 12.8 nM | 60.8 nM | 49.2 nM | 
CC[C@H](C)[C@H](N)C(=O)N[C@@H](CC(N)=O)C(=O)N[C@H]1CSC(=O)[C@H](CC(C)C)NC(=O)[C@H](CC(C)C)N(C)C(=O)[C@H](Cc2ccccc2)NC(=O)[C@H](CC(=O)O)NC1=O [AIP-III N-Me-L6, I-N-(C-D-F-NMeL-L)] (H-INCDF[NMeL]L; thioester 3-C) |  |  |  |  |  | 162 nM |  | > 1000 nM | 81.6 nM | AgrC-IV activity [4]: AgrC-IV selective inhibitor
CC[C@H](C)[C@H](N)C(=O)N[C@@H](CC(N)=O)C(=O)N[C@H]1CSC(=O)[C@H](CC(C)C)N(C)C(=O)[C@H](CC(C)C)NC(=O)[C@H](Cc2ccccc2)NC(=O)[C@H](CC(=O)O)NC1=O [AIP-III N-Me-L7, I-N-(C-D-F-L-NMeL)] (H-INCDFL[NMeL]; thioester 3-C) |  |  |  |  |  | > 1000 nM |  |  |  | AgrC-IV IC50 [4, 11]: _h
CC[C@H](C)[C@H](N)C(=O)N[C@@H](CC(N)=O)C(=O)N[C@H]1CSC(=O)[C@H](CC(C)C)NC(=O)[C@H](CC(C)C)NC(=O)[C@H](Cc2ccccc2)NC(=O)CN(CC(=O)O)C1=O [AIP-III nD4, I-N-(C-nD-F-L-L)] |  |  |  |  |  |  | 28.3 nM | 162 nM | 53.2 nM | 
CC[C@H](C)[C@H](N)C(=O)N[C@@H](CC(N)=O)C(=O)N[C@H]1CSC(=O)[C@H](CC(C)C)NC(=O)CN(CC(C)C)C(=O)[C@H](Cc2ccccc2)NC(=O)[C@H](CC(=O)O)NC1=O [AIP-III nL6, I-N-(C-D-F-nL-L)] (H-INCDF[Nleu]L; thioester 3-C) |  |  |  |  |  | > 1000 nM |  |  | > 1000 nM | 
CC[C@@H](C)C1NC(=O)CN(CC(=O)N[C@H]2CSC(=O)[C@H](CC(C)C)NC(=O)[C@H](CC(C)C)NC(=O)[C@H](Cc3ccccc3)NC(=O)[C@H](CC(=O)O)NC2=O)C1=O (stereo partly drawn) [AIP-III nN2 DKP, (I-nN)-(C-D-F-L-L)] (X1-CDFLL; thioester 1-C) | AgrC-III inhibitor |  |  |  |  | 25.1 nM | 4.28 nM | 126 nM | 84.8 nM | 
CC[C@H](C)[C@H](NC(C)=O)C(=O)N[C@@H](CC(N)=O)C(=O)N[C@H]1CSC(=O)[C@H](CC(C)C)NC(=O)[C@H](CC(C)C)NC(=O)[C@H](Cc2ccccc2)NC(=O)[C@H](CC(=O)O)NC1=O [Ac-AIP-III, Ac-I-N-(C-D-F-L-L)] (Ac-INCDFLL; thioester 3-C) | largely inactive | > 200 nM | 44.3 nM | > 200 nM | > 200 nM |  |  |  |  | 
CC[C@H](C)[C@H](NC(=O)CN)C(=O)N[C@@H](CC(N)=O)C(=O)N[C@H]1CSC(=O)[C@H](CC(C)C)NC(=O)[C@H](CC(C)C)NC(=O)[C@H](Cc2ccccc2)NC(=O)[C@H](CC(=O)O)NC1=O [G-AIP-III, G-I-N-(C-D-F-L-L)] (H-GINCDFLL; thioester 4-C) | largely inactive | > 200 nM | 13.7 nM | 29.9 nM | 104 nM |  |  |  |  | 
CC[C@H](C)[C@H](NC(=O)[C@@H](N)Cc1ccc(O)cc1)C(=O)N[C@@H](CC(N)=O)C(=O)N[C@H]1CSC(=O)[C@H](CC(C)C)NC(=O)[C@H](CC(C)C)NC(=O)[C@H](Cc2ccccc2)NC(=O)[C@H](CC(=O)O)NC1=O [Y-AIP-III, Y-I-N-(C-D-F-L-L)] (H-YINCDFLL; thioester 4-C) | moderate antagonist | 39.2 nM | 3.75 nM | 8.92 nM | 78.2 nM |  |  |  |  | 
CC(=O)N[C@H]1CSC(=O)[C@H](Cc2ccccc2)NC(=O)[C@H](CC(C)C)NC(=O)CCCNC1=O [n3LF] (Ac-C[GABA]LF; thioester 1-C) | global inhibitor of all four AgrC receptors |  |  |  |  |  |  |  |  | AgrC-III % Activation [1]: 13 ± 7%; AgrC-II % Activation [2]: 28 ± 10%; AgrC-II activity described in text ([2]; gfp/fluorescence assay): global inhibitor of all four AgrC receptors; AgrC-I % Activation [3]: 17 ± 7%; AgrC-I activity described in text ([3]; gfp/fluorescence assay): global inhibitor of all four AgrC receptors; AgrC-IV % Activation [4]: 6 ± 3%; AgrC-IV activity [4]: global inhibitor of all four AgrC receptors
CC(=O)N[C@H]1CSC(=O)[C@H](Cc2ccccc2)NC(=O)[C@H](CC(C)C)NC(=O)CCCCCCCNC1=O [n7LF] (Ac-C[Aoc]LF; thioester 1-C) | selective group-III inhibitors |  |  |  |  |  |  |  |  | AgrC-III % Activation [1]: 7 ± 3%; AgrC-II % Activation [2]: 43 ± 25%; AgrC-I % Activation [3]: 54 ± 34%; AgrC-IV % Activation [4]: 98 ± 14%
CC(=O)N[C@H]1CSC(=O)[C@H](CC(C)C)NC(=O)[C@H](CC(C)C)NC(=O)[C@H](Cc2ccccc2)NC(=O)[C@H](CC(=O)O)NC1=O [tAIP-III, Ac-(C-D-F-L-L)] (Ac-CDFLL; thioester 1-C) | largely inactive | > 200 nM | 1.53 nM | 26.7 nM | 25.5 nM |  |  |  |  | 
